Test results: ChEMBL document CHEMBL5325488, “Discovery of SMD-3040 as a Potent and Selective SMARCA2 PROTAC Degrader with Strong in vivo Antitumor Activity” (J Med Chem, 2023)
Active and inactive are the calls of the source. No cut-off for these calls is given here.

Columns and labels:
[1] = biological target: T1, von Hippel-Lindau disease tumor suppressor/SWI/SNF-related matrix-associated actin-dependent regulator of chromatin subfamily A member 4 (Homo sapiens, UniProt P51532+P40337); test: PROTAC activity at VHL/C-terminal HiBiT fused SMARCA4 in human HeLa cells assessed as induction of SMARCA4 degradation at 0.001 to 10 uM by Nano-Glo HiBiT analysis; type: cell-based; conditions: dose 0.001-10 µM, time 1-48 hrs, TDE = time-dependent effect
[2] = biological target: T2, von Hippel-Lindau disease tumor suppressor/SWI/SNF-related matrix-associated actin-dependent regulator of chromatin subfamily A member 2 (Homo sapiens, UniProt P51531+P40337); test: In vivo PROTAC activity at VHL/SMARCA2 in SCID mouse xenografted with human MV4-11 cells assessed as remaining activity in tumor at 50 mg/kg, iv administered as single dose measured after 72 hrs by Western blotting analysis (reference value: 100 +/- 15 % ); type: ADME, organism-based
Target sequence in this assay (P51531 whole entry): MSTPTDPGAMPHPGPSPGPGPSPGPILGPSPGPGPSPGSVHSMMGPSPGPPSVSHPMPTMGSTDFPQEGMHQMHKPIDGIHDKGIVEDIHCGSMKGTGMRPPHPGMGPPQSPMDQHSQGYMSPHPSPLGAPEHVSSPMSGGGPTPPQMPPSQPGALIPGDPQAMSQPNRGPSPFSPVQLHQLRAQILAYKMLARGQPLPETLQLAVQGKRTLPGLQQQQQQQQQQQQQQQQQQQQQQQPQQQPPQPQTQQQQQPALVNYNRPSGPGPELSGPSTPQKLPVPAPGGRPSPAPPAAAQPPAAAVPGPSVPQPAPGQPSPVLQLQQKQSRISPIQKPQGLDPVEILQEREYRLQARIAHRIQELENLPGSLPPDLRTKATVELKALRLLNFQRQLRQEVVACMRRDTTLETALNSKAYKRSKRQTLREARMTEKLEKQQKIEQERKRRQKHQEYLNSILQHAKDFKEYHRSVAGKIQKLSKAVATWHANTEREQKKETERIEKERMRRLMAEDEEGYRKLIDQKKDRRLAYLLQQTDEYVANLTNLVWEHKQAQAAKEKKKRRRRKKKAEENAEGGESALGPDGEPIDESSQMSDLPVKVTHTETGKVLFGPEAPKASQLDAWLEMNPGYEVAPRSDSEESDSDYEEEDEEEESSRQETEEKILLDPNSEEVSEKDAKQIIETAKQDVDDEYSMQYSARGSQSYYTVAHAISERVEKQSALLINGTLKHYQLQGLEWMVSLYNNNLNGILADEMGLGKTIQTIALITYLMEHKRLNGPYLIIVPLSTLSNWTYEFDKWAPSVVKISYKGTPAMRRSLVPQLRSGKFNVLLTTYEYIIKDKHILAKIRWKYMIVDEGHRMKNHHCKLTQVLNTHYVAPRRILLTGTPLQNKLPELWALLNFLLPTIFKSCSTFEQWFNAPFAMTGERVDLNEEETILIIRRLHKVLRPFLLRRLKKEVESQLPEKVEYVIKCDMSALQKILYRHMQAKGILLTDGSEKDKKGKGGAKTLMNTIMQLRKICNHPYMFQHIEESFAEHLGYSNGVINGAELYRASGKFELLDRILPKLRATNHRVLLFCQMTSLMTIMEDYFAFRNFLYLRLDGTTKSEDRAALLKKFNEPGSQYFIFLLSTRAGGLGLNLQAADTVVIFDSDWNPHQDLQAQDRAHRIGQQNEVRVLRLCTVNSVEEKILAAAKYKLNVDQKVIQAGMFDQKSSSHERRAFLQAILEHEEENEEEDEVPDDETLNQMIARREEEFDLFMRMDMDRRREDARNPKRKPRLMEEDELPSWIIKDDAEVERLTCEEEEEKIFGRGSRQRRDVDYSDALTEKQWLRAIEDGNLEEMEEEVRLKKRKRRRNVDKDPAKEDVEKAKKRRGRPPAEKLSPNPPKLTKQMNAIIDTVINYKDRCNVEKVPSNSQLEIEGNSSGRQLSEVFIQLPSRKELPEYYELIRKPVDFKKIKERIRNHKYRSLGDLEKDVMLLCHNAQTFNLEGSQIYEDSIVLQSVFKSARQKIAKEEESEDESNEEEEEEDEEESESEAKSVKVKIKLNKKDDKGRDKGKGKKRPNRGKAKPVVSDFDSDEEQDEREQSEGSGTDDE
Target sequence in this assay (P40337 whole entry): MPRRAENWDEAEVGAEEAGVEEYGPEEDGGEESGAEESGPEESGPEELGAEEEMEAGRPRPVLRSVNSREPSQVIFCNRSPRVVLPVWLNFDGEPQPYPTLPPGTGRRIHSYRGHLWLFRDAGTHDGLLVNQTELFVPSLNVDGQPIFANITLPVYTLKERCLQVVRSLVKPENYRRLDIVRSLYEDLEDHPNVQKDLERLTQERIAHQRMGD

[3] = biological target: T1, von Hippel-Lindau disease tumor suppressor/SWI/SNF-related matrix-associated actin-dependent regulator of chromatin subfamily A member 4; test: In vivo PROTAC activity at VHL/SMARCA4 in SCID mouse xenografted with human MV4-11 cells assessed as reduction of SMARCA4 level in tumor at 50 mg/kg, iv administered as single dose measured after 24 hrs by Western blotting analysis; type: ADME, organism-based; design: scale not given: the % may be the effect or the level left
Target sequence in this assay (P51532 whole entry, the tested form may be a part): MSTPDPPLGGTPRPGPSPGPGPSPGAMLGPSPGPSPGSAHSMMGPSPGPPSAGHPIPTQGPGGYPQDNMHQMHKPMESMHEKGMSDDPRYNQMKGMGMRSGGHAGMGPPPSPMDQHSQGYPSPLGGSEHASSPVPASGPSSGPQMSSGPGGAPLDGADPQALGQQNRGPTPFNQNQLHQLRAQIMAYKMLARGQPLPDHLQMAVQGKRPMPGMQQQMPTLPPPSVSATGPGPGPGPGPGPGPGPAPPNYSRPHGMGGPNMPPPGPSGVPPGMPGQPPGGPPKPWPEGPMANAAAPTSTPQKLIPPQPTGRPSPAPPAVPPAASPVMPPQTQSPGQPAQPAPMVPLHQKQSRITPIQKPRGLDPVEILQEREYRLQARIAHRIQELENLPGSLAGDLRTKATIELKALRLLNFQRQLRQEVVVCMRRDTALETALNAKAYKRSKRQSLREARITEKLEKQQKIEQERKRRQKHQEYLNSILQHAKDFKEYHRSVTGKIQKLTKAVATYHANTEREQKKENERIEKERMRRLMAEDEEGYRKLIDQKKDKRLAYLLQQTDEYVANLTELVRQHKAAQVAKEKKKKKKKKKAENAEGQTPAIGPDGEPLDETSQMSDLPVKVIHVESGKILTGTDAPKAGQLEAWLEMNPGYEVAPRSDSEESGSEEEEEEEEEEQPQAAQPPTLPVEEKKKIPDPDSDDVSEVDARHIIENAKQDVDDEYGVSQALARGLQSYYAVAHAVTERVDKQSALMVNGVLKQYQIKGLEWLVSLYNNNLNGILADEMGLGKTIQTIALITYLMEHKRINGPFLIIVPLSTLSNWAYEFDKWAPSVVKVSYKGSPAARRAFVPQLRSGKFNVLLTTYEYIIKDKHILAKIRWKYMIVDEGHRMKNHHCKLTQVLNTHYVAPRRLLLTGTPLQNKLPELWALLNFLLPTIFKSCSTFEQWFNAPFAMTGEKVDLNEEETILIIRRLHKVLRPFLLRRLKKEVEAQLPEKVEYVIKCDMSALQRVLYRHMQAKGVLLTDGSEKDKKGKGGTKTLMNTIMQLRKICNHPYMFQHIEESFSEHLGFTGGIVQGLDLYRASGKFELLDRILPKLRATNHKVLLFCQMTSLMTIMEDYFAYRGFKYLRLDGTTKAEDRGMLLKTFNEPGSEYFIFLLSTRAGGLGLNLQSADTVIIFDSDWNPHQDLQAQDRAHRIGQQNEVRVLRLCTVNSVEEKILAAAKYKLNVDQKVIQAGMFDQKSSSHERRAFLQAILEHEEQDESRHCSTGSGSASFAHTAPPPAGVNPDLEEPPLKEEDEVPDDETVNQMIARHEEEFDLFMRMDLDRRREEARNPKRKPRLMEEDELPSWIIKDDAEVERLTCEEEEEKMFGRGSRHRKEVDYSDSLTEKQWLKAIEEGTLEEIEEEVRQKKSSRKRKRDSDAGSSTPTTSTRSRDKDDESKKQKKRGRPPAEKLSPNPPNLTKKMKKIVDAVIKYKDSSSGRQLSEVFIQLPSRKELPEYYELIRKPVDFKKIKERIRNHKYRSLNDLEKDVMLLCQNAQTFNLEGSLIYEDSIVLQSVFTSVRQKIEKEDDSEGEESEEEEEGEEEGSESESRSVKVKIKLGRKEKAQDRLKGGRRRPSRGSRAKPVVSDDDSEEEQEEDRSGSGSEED
Target sequence in this assay (P40337 whole entry, the tested form may be a part): as the sequence (P40337 whole entry) above

NCI-H1975 = test: Antiproliferative activity against human NCI-H1975 cells expressing wild-type SMARCA2 assessed as cell growth inhibition by measuring maximal efficacy measured after 7 days by WST-8 assay relative to control; type: functional; conditions: time 7 day
NCI-H1944 = test: Antiproliferative activity against SMARCA4-deficient human NCI-H1944 cells assessed as cell growth inhibition by measuring maximal efficacy measured after 7 days by WST-8 assay relative to control; type: functional; conditions: time 7 day
[4] = biological target: T2, von Hippel-Lindau disease tumor suppressor/SWI/SNF-related matrix-associated actin-dependent regulator of chromatin subfamily A member 2; test: In vivo PROTAC activity at VHL/SMARCA2 in SCID mouse xenografted with human MV4-11 cells assessed as reduction of SMARCA2 level in tumor at 50 mg/kg, iv administered as single dose measured after 2 hrs by Western blotting analysis; type: ADME, organism-based; design: scale not given: the % may be the effect or the level left
Target sequence in this assay (P51531 whole entry): as the sequence (P51531 whole entry) above
Target sequence in this assay (P40337 whole entry): as the sequence (P40337 whole entry) above

[5] = biological target: T2, von Hippel-Lindau disease tumor suppressor/SWI/SNF-related matrix-associated actin-dependent regulator of chromatin subfamily A member 2; test: In vivo PROTAC activity at VHL/SMARCA2 in SCID mouse xenografted with human MV4-11 cells assessed as reduction of SMARCA2 level in tumor at 50 mg/kg, iv administered as single dose measured after 96 hrs by Western blotting analysis; type: ADME, organism-based; design: scale not given: the % may be the effect or the level left
Target sequence in this assay (P51531 whole entry): as the sequence (P51531 whole entry) above
Target sequence in this assay (P40337 whole entry): as the sequence (P40337 whole entry) above

NCI-H838 = test: Antiproliferative activity against SMARCA4-deficient human NCI-H838 cells assessed as cell growth inhibition measured after 7 days by WST-8 assay; type: functional; conditions: NCI-H838, 168 h, time 7 day
[6] = biological target: T1, von Hippel-Lindau disease tumor suppressor/SWI/SNF-related matrix-associated actin-dependent regulator of chromatin subfamily A member 4; test: PROTAC activity at VHL/C-terminal HiBiT fused SMARCA4 in human HeLa cells assessed as induction of SMARCA4 degradation incubated for 6 hrs by Nano-Glo HiBiT analysis; type: cell-based
Target sequence in this assay (P51532 whole entry, the tested form may be a part): as the sequence (P51532 whole entry, the tested form may be a part) above
Target sequence in this assay (P40337 whole entry, the tested form may be a part): as the sequence (P40337 whole entry) above

NCI-H647 = test: Antiproliferative activity against human NCI-H647 cells expressing wild-type SMARCA2 assessed as cell growth inhibition by measuring maximal efficacy measured after 7 days by WST-8 assay relative to control; type: functional; conditions: time 7 day
[7] = biological target: T2, von Hippel-Lindau disease tumor suppressor/SWI/SNF-related matrix-associated actin-dependent regulator of chromatin subfamily A member 2; test: PROTAC activity at VHL/C-terminal HiBiT fused SMARCA2 in human HeLa cells assessed as induction of SMARCA2 degradation incubated for 6 hrs by Nano-Glo HiBiT analysis; type: cell-based
Target sequence in this assay (P51531 whole entry): as the sequence (P51531 whole entry) above
Target sequence in this assay (P40337 whole entry): as the sequence (P40337 whole entry) above

[8] = biological target: T2, von Hippel-Lindau disease tumor suppressor/SWI/SNF-related matrix-associated actin-dependent regulator of chromatin subfamily A member 2; test: PROTAC activity at VHL/C-terminal HiBiT fused SMARCA2 in human HeLa cells assessed as induction of SMARCA2 degradation incubated for 3 hrs by Nano-Glo HiBiT analysis; type: cell-based
Target sequence in this assay (P51531 whole entry): as the sequence (P51531 whole entry) above
Target sequence in this assay (P40337 whole entry): as the sequence (P40337 whole entry) above

[9] = biological target: T2, von Hippel-Lindau disease tumor suppressor/SWI/SNF-related matrix-associated actin-dependent regulator of chromatin subfamily A member 2; test: PROTAC activity at VHL/C-terminal HiBiT fused SMARCA2 in human HeLa cells assessed as induction of SMARCA2 degradation at 0.0001 to 1 uM incubated for 6 hrs by Nano-Glo HiBiT analysis relative to control; type: cell-based; conditions: dose 0.0001-1 µM
[10] = biological target: T1, von Hippel-Lindau disease tumor suppressor/SWI/SNF-related matrix-associated actin-dependent regulator of chromatin subfamily A member 4; test: In vivo PROTAC activity at VHL/SMARCA4 in SCID mouse xenografted with human MV4-11 cells assessed as reduction of SMARCA4 level in tumor at 50 mg/kg, iv administered as single dose measured after 96 hrs by Western blotting analysis; type: ADME, organism-based; design: scale not given: the % may be the effect or the level left
Target sequence in this assay (P51532 whole entry, the tested form may be a part): as the sequence (P51532 whole entry, the tested form may be a part) above
Target sequence in this assay (P40337 whole entry, the tested form may be a part): as the sequence (P40337 whole entry) above

[11] = biological target: T1, von Hippel-Lindau disease tumor suppressor/SWI/SNF-related matrix-associated actin-dependent regulator of chromatin subfamily A member 4; test: PROTAC activity at VHL/C-terminal HiBiT fused SMARCA4 in human HeLa cells assessed as induction of SMARCA4 degradation incubated for 1 to 48 hrs by Nano-Glo HiBiT analysis; type: cell-based; conditions: dose 0.001-10 µM, time 1-48 hrs
[12] = biological target: T2, von Hippel-Lindau disease tumor suppressor/SWI/SNF-related matrix-associated actin-dependent regulator of chromatin subfamily A member 2; test: PROTAC activity at VHL/C-terminal HiBiT fused SMARCA2 in human HeLa cells assessed as induction of SMARCA2 degradation at 0.0001 to 1 uM incubated for 1 hr by Nano-Glo HiBiT analysis relative to control; type: cell-based; conditions: dose 0.0001-1 µM
[13] = biological target: T2, von Hippel-Lindau disease tumor suppressor/SWI/SNF-related matrix-associated actin-dependent regulator of chromatin subfamily A member 2; test: PROTAC activity at VHL/C-terminal HiBiT fused SMARCA2 in human HeLa cells assessed as induction of SMARCA2 degradation at 0.0001 to 1 uM incubated for 3 hrs by Nano-Glo HiBiT analysis relative to control; type: cell-based; conditions: dose 0.0001-1 µM
[14] = biological target: T2, von Hippel-Lindau disease tumor suppressor/SWI/SNF-related matrix-associated actin-dependent regulator of chromatin subfamily A member 2; test: PROTAC activity at VHL/C-terminal HiBiT fused SMARCA2 in human HeLa cells assessed as induction of SMARCA2 degradation pre-treated with 2-(6-amino-5-(1-methyl-1H-pyrazol-4-yl)pyridazin-3-yl)phenol for 2 hrs followed by compound treatment for 24 hrs by Nano-Glo HiBiT analysis; type: cell-based
[15] = biological target: T2, von Hippel-Lindau disease tumor suppressor/SWI/SNF-related matrix-associated actin-dependent regulator of chromatin subfamily A member 2; test: In vivo PROTAC activity at VHL/SMARCA2 in SCID mouse xenografted with human MV4-11 cells assessed as reduction of SMARCA2 level in tumor at 50 mg/kg, iv administered as single dose measured after 48 hrs by Western blotting analysis; type: ADME, organism-based; design: scale not given: the % may be the effect or the level left
Target sequence in this assay (P51531 whole entry): as the sequence (P51531 whole entry) above
Target sequence in this assay (P40337 whole entry): as the sequence (P40337 whole entry) above

[16] = Drug concentration in SCID mouse tumor xenografted with human MV4-11 cells at 50 mg/kg, iv measured after 2 hrs by LC-MS/MS method; type: ADME, organism-based, Neoplasm; conditions: read-out: Ct
[17] = Drug concentration in SCID mouse plasma xenografted with human MV4-11 cells at 50 mg/kg, iv measured after 24 hrs by LC-MS/MS method; type: ADME, organism-based
SK-MEL-5 = test: Antiproliferative activity against SMARCA4-deficient human SK-MEL-5 cells assessed as cell growth inhibition measured after 7 days by WST-8 assay; type: functional; conditions: SK-MEL-5, 168 h, time 7 day
[18] = biological target: T2, von Hippel-Lindau disease tumor suppressor/SWI/SNF-related matrix-associated actin-dependent regulator of chromatin subfamily A member 2; test: In vivo PROTAC activity at VHL/SMARCA2 in SCID mouse xenografted with human MV4-11 cells assessed as reduction of SMARCA2 level in tumor at 50 mg/kg, iv administered as single dose measured after 72 hrs by Western blotting analysis; type: ADME, organism-based; design: scale not given: the % may be the effect or the level left
[19] = biological target: T2, von Hippel-Lindau disease tumor suppressor/SWI/SNF-related matrix-associated actin-dependent regulator of chromatin subfamily A member 2; test: In vivo PROTAC activity at VHL/SMARCA2 in SCID mouse xenografted with human MV4-11 cells assessed as remaining activity in tumor at 50 mg/kg, iv administered as single dose measured after 96 hrs by Western blotting analysis (reference value: 100 +/- 15 % ); type: ADME, organism-based
[20] = biological target: T2, von Hippel-Lindau disease tumor suppressor/SWI/SNF-related matrix-associated actin-dependent regulator of chromatin subfamily A member 2; test: In vivo PROTAC activity at VHL/SMARCA2 in SCID mouse xenografted with human NCI-H838 cells assessed as reduction of SMARCA2 level in tumor at 50 mg/kg, iv administered as single dose measured after 96 hrs by Western blotting analysis; type: functional, organism-based; design: scale not given: the % may be the effect or the level left

Activity [1]: Tde
Activity [2]: 44%
Activity [3]: 29%
Activity [4]: 78%
Activity [5]: 74%
GI50 (NCI-H838): 119 nM
DC50 [6]: > 3300 nM
DC50 [7]: 44 nM
DC50 [8]: 63 nM
Emax [9]: 80%
Activity [10]: 16%
Activity [11]: Dose-Dependent Effect
Emax [12]: 66%
Emax [13]: 79%
Activity [14]: inactive
Activity [15]: 83%
concentration at 2 h [16]: 3420 ng/g
concentration at 24 h [17]: 218 ng/mL
GI50 (SK-MEL-5): 15 nM
Activity [18]: 56%
Activity [19]: 26%
Activity [20]: 67%
SMILES: Cc1ncsc1-c1ccc([C@H](C)NC(=O)[C@@H]2C[C@@H](O)CN2C(=O)[C@@H](NC(=O)[C@H]2CC[C@H](CN3CC4(CCC(n5cc(-c6cc(-c7ccccc7O)nnc6N)cn5)CC4)C3)CC2)C(C)(C)C)cc1
Imax (NCI-H1975): 47%
Imax (NCI-H1944): 88%
Imax (NCI-H647): 74%
